Going from `CN(C)C(=O)c1ccc(C2CCC(=O)CC2)cc1` to `COc1ccc(C(=O)NC[C@@H]2CN3C(=O)C[C@H]3O2)cc1` (racemic), the melting point rises from 118 °C to 143 °C.

First: Cc1cn(-c2cccc(C3=Nc4ccc(-c5ccc(F)cc5)cc4NC(=O)C3)c2)cn1
Second: Cn1cncc1C(O)(c1ccc(Cn2cnnn2)cc1)c1ccc2c(c1)c(-c1cccc(Cl)c1)cc(=O)n2C (stereo not drawn)
The melting point of the first is higher: 215 °C for the first, 160 °C for the second.

First: CCC(=O)N(CC)c1cccc(-c2ccc3nncn3n2)c1
Second: CCOC(=O)c1cccc(-c2cc3c(Cl)ncnc3[nH]2)c1
The melting point of the first is lower: 127 to 130 °C for the first, over 250 °C for the second.

First: CC1(C)CC(=O)c2c(S(C)(=O)=O)sc(-c3cc[nH]n3)c2C1
Second: Nc1nc2c(s1)C(=O)c1ccccc1C2=O
The melting point of the first is lower: 213 to 216 °C for the first, over 260 °C for the second.

First: CC1(C)Oc2ccc(Br)cc2C(n2ccccc2=O)=C1CBr
Second: Cc1cc2c3c(ccc2cc1Br)OC(=O)C3(C)C
The melting point of the first is lower: 175 °C for the first, 187 to 189 °C for the second.

Compared with `CCCN(CCC)C1CCc2c(ccc3[nH]cc(C(C)=O)c23)C1` (stereo not drawn), `CCCc1c(O)ccc2c1OC(C(=O)OC)CC2` (stereo not drawn) is lower in melting point: 196 to 197 °C for the first, 51 to 53 °C for the second.

Compared with `CCOC(=O)c1ccc(N2CCN(Cc3cnc4c(c3)NC(=O)[C@@H]3CCCN43)CC2)cc1`, `Cc1c(C(=O)Nc2ccc(N3CCC(N4CCOCC4)CC3)cc2C#N)cnn1-c1ccc(C(F)(F)F)cc1` is lower in melting point: 242 °C for the first, 210 to 212 °C for the second.

First: COc1ccc(C(=O)Nc2ccc3ccc(Cl)nc3n2)cc1
Second: COc1ccc(NS(=O)(=O)c2ccc([N+](=O)[O-])cc2)cc1
The melting point of the first is higher: 208 °C for the first, 173 to 175 °C for the second.

Compared with `Cc1c(C=O)c2c(c(C)c1NC(=O)NC(C)(C)C)C(c1ccc(C(C)C)cc1)CO2` (single isomer, unassigned; (-)), `COc1ccc(C2SCC(C(=O)O)N2C(=O)OC(C)(C)C)cc1` (stereo not drawn) is lower in melting point: 209 to 210 °C for the first, 160 to 162 °C for the second.

First: Cn1c(C(F)(F)F)cc(=O)n(-c2ccc3snc(C(=O)NS(C)(=O)=O)c3c2)c1=O
Second: Cn1c(C(F)(F)F)cc(=O)n(-c2cc(OS(=O)(=O)Cl)c(Cl)cc2F)c1=O
The melting point of the first is higher: 241 to 243 °C for the first, 133 to 135 °C for the second.

Compared with `COc1ccc2cc(C#CC(C)(C)O)ccc2c1`, `COc1ccccc1[Si](C)(C)COc1cc(C(C)(C)C)c(O)c(C(C)(C)C)c1` is lower in melting point: 118 to 119 °C for the first, 89 to 90 °C for the second.

Compared with `C=C1C(=O)c2ccccc2OC1c1ccc(Cl)cc1Cl` (stereo not drawn), `Cn1cc(-c2ccc(Cl)cc2Cl)c(=O)cc1C(F)(F)F` is higher in melting point: 86 to 87 °C for the first, 205 to 206 °C for the second.

Compared with `CC(=O)Nc1ccc(Oc2c(NCc3ccccc3)cc(C(=O)O)cc2S(N)(=O)=O)cc1`, `Cc1cc(C)cc(NC(=O)Nc2ccc(-c3c(C(N)=O)[nH]c4ccccc34)cc2)c1` is lower in melting point: 255 °C for the first, 168 to 170 °C for the second.

First: CC(=O)OCC1OC(n2c(F)nc3c(N)ncnc32)C(OC(C)=O)C1OC(C)=O (stereo not drawn)
Second: CC(=O)Nc1ccn(C2OC(COC(C)=O)CC2OC(C)=O)c(=O)n1 (stereo not drawn)
The melting point of the first is lower: 98 to 101 °C for the first, 174 to 177 °C for the second.

Compared with `CC[C@@H]1CN(c2c(F)c(N)c3c(=O)c(C(=O)O)cn(C4CC4)c3c2F)C[C@H]1NC(=O)OC` (relative stereo), `O=C(O)c1cc(F)c(N2CCCC2)nc1NC1CC1` is lower in melting point: 231 to 232 °C for the first, 64 to 66 °C for the second.

First: CCOC(=O)c1cncc(OC)c1CCCOc1cccnc1Oc1cccc(Cl)c1
Second: Cc1ccccc1COc1cccnc1NC(=N)Nc1ccc(Cl)cc1
The melting point of the first is lower: 82 to 83 °C for the first, 158 to 159 °C for the second.

Compared with `O=C(O)c1ccccc1C(=O)N1Cc2cccn2Cc2ccccc21`, `O=C(NC(Cc1ccccc1)C(=O)O)c1ccccc1` (stereo not drawn) is lower in melting point: 210 to 214 °C for the first, 183 to 184 °C for the second.

First: CCOCc1cc2ccccc2oc1=Nc1ccc(F)cc1
Second: CCC(CC)(CC(=O)Nc1cccc(OCc2ccc3cc(F)ccc3n2)c1)C(=O)O
The melting point of the first is lower: 84 to 86 °C for the first, 88 to 90 °C for the second.

First: CCCCCCCc1ccc(-c2cnc([C@H]3CC[C@H](C#N)CC3)nc2)cc1
Second: CCCCC1=C(c2ccc(F)cc2)C(=NO)CC1
The melting point of the first is lower: 83.5 °C for the first, 115 to 116 °C for the second.

First: CN1CCN(c2ccc([N+](=O)[O-])cn2)CC1
Second: O=C(O)c1ccc(Oc2ccc([N+](=O)[O-])cc2)cc1O
The melting point of the first is lower: 75 to 76 °C for the first, 195 to 197 °C for the second.

First: Cc1ccc(NCc2ccc(N(C)C)cc2)cc1C
Second: COc1ccccc1Cc1ccc(N)c(C#N)c1
The melting point of the first is lower: 73 to 75 °C for the first, 77.5 to 78.5 °C for the second.

First: CCOC(=O)c1cc(C(O)(C(F)(F)F)C(F)(F)F)ccc1N
Second: CCOC(=O)C1=C(C)NN=C(CC)C1c1ccccc1 (stereo not drawn)
The melting point of the first is higher: 115 to 117 °C for the first, 109 °C for the second.

First: CCOCc1nc2c(N)nc3cc(N4CCN(CC)C4=O)ccc3c2n1CC(C)(C)O
Second: CCn1c(=NC(C)=O)c(-c2cc(OC)cc(OC)c2)cc2cnc(SC)nc21
The melting point of the first is higher: 210 to 212 °C for the first, 145 to 150 °C for the second.

Compared with `C[C@@H](n1cnc2ccc(Cl)cc2c1=O)[C@](O)(Cn1cncn1)c1ccc(F)cc1F`, `N#Cc1c(N2CCN(C(=O)c3cccs3)CC2)c2cc(Cl)ccc2n(Cc2ccccc2)c1=O` is higher in melting point: 188 to 189 °C for the first, 266 °C for the second.

First: Cc1sc(-c2ccncc2)nc1CCOc1ccc(C[C@H](Nc2ccccc2C(=O)c2ccccc2)C(=O)O)cc1
Second: O=C(O)CCc1cn(Cc2ccc(OCc3ccccc3)cc2)cc1-c1ccccc1
The melting point of the first is higher: 155 to 158 °C for the first, 130 to 131 °C for the second.

First: O=C(c1ccc2ccccc2c1)C(O)O
Second: O=C(O)C(CC(=O)N1Cc2ccc(F)cc2C1)Cc1ccccc1 (stereo not drawn)
The melting point of the first is lower: 103 to 120 °C for the first, 136 to 138 °C for the second.

Compared with `CCCCc1nc(Cl)c(CO)n1Cc1ccc(NC(=O)C(NC(=O)OC(C)(C)C)C(=O)O)cc1` (racemic), `CCCc1nc(OC)c(NC(=O)N2CCN(c3cc(C)cc(C)c3)CC2)cc1C(=O)NC(C)C(=O)Nc1cc(CO)cc(Nc2c3ccccc3nc3ccccc23)c1` (stereo not drawn) is higher in melting point: 144 to 147 °C for the first, 195 to 197 °C for the second.

`C=CCn1c(N)c(N=O)c(=O)n(CC=C)c1=O` and `Cn1c(=O)c(N)c(N)n(-c2ccc(Cl)cc2Cl)c1=O` cannot be ordered by melting point: 170 to 180 °C for the first, 170 to 172 °C for the second.

First: S=c1[nH]ccn1C1CCCc2ccccc21 (stereo not drawn)
Second: O=C(CCl)C1=NOC(c2ccccc2F)C1 (stereo not drawn)
The melting point of the first is higher: 188 to 189 °C for the first, 42 to 44 °C for the second.

First: COc1nc(NC(=O)NS(=O)(=O)c2cccc3c2CCCC3)nc(OC)n1
Second: COC(=O)c1c(OCc2ccccc2)ccc2c1CC[C@H](NC(C)C)[C@@H]2O (relative stereo)
The melting point of the first is higher: 171 to 173 °C for the first, 91 to 92 °C for the second.

First: COc1cc(NC(=O)c2ccco2)ccc1S(=O)(=O)N1C(=O)C(c2ccccc2Cl)(N(C)C)c2cc(Cl)ccc21 (stereo not drawn)
Second: CC(C)(C)C(F)(F)c1ccc(C[C@@H](NC(=O)c2ccc(F)c3ccccc23)[C@@H](O)c2cccc(Cl)c2)cc1 (racemic)
The melting point of the first is higher: 255 °C for the first, 104 to 106 °C for the second.

Compared with `COc1c(C)cnc(Cn2c(SC/C=C(\C)CCC=C(C)C)nc3ccccc32)c1C`, `COc1ccc(Cc2nc3c(c4c2[nH]c2ccccc24)C(O)CC(C)(C)C3)cc1` (stereo not drawn) is higher in melting point: 76 to 80 °C for the first, 146 °C for the second.

First: CCOC(=O)c1cc2c(C)c([N+](=O)[O-])c(C)c(C)c2o1
Second: CCOC(=O)CCC1OC(=O)C(O)=C1c1ccccc1 (stereo not drawn)
The melting point of the first is higher: 126 to 128 °C for the first, 114 to 116 °C for the second.

Compared with `CCCn1c(=O)c2[nH]c(C3CCOCC3)nc2n(CCC)c1=O`, `CCCn1c(=O)nc2sc3ccccc3nc-2c1=O` is higher in melting point: 171 to 172 °C for the first, 258 °C for the second.

First: CCCCNS(=O)(=O)NC(=O)OCc1ccc(OCCOC)cc1Oc1ncc(C(F)(F)F)cc1Cl
Second: O=C(Nc1c[nH]nc1C(=O)NCC(F)(F)F)c1ccccn1
The melting point of the first is lower: 164 to 165 °C for the first, 235 to 236 °C for the second.

First: COC(=O)C1=Cc2cc(Br)ccc2NCC1
Second: COC(=O)C1=C(C)NN=C(c2cccs2)C1c1ccccc1 (stereo not drawn)
The melting point of the first is lower: 143 to 145 °C for the first, 194 °C for the second.

First: O=C(c1ccccc1)C(Cc1ccc(Cl)cc1)c1cccnn1 (stereo not drawn)
Second: c1ccc(C2=Nc3ccccc3-n3ccc4cccc2c43)cc1
The melting point of the first is higher: 140 to 142 °C for the first, 128 to 136 °C for the second.

Compared with `N=C(N)c1ccc(S(=O)(=O)NCCc2ccc(OCC(=O)O)cc2)cc1`, `COC(=O)C1=CN(CCCc2ccccc2)C=C(C(=O)OC)C1c1ccc(OC)c(OC)c1` is lower in melting point: 292 to 293 °C for the first, 107 to 113 °C for the second.

Compared with `NC(=O)c1ccc(Cl)c2c1CC([N+](=O)[O-])CO2` (stereo not drawn), `CN1C(=O)CCC2(C)c3ccc(Sc4ccc(Cl)cc4)cc3CCC12` (single isomer, unassigned; (+)) is lower in melting point: 193 to 194 °C for the first, 122 to 124 °C for the second.

Compared with `CCc1cc(NC(=O)c2cccs2)cc(CC)c1O`, `CCNCC(=O)Nc1ccc2c(c1)C(=O)c1cc(NC(=O)CNCC)ccc1C2=O` is lower in melting point: 190 to 192 °C for the first, 145 °C for the second.

First: Cc1ccccc1-c1nc(=S)n(Cc2ccccc2)[nH]1
Second: CC(=O)Nc1ccccc1CCc1ccccn1
The melting point of the first is lower: 150 to 153 °C for the first, 230 to 232 °C for the second.

First: CCCCCCCCOC(=O)c1cc(C(C)(C)C)c(OC(=O)c2cc(C(C)(C)C)c(O)c(C(C)(C)C)c2)c(C(C)(C)C)c1
Second: CCCCn1ccc(Cc2cnc(NCCCCc3ncc(Br)cc3N)[nH]c2=O)cc1=O
The melting point of the first is lower: 94 to 97 °C for the first, 140 to 150 °C for the second.

First: CC(C)CCNCCCS(=O)(=O)O
Second: COC(=O)CON=C(C(=O)O)C(=O)CCl
The melting point of the first is higher: 220 °C for the first, 127 to 128 °C for the second.

Compared with `CC(CCCC(C)(C)O)C1CCC2C3C=CC4=CC(=O)C=CC4(C)C3CCC12C` (stereo not drawn), `COCC1(C)CCOc2ccc(/C=C/c3ccc(C(=O)O)cc3)cc21` (stereo not drawn) is higher in melting point: 180 to 182 °C for the first, 209 to 210 °C for the second.

First: COc1cc(-c2nc(N3CCN(C(C)=O)CC3)c3c(C)c(C#N)sc3n2)cc(OC)c1OC
Second: COc1ccc(-c2csc(N(C)c3cc4ccccc4cn3)n2)cc1OC
The melting point of the first is higher: 211 to 213 °C for the first, 165 to 166 °C for the second.

First: ClCCCOc1ccc(-n2cncn2)cc1
Second: FC(F)(F)c1ccc(-c2oncc2CCl)cc1
The melting point of the first is lower: 81 to 82 °C for the first, 99 to 100 °C for the second.

First: O=Cc1c[nH]c2c1ccc1c3cccc(Br)c3[nH]c12
Second: CC(C#N)=Cc1ccc(C=O)cc1
The melting point of the first is higher: over 250 °C for the first, 63 to 64 °C for the second.

First: O=C1C(Br)=CC2(C=C1Br)CCNC1=C2C2=NCCc3c[nH]c(c32)C1=O
Second: CSc1ncc(S(=O)(=O)NC(C)(C)C)c(Cl)n1
The melting point of the first is higher: over 360 °C for the first, 117 to 118 °C for the second.

Compared with `CON=C1CCc2c(cccc2OCC(O)CN2CCN(C(c3ccccc3)c3ccccc3)CC2)C1` (stereo not drawn), `CC(C)OC(=O)C(C(=O)O)=C1SCCS1` is lower in melting point: over 183 °C for the first, 104 to 106 °C for the second.
